The text below walks through data of US20240400577A1, “MODULATORS OF PROTEIN KINASES” (VIBLIOME THERAPEUTICS, LLC, priority 2021, published 2024).

pIC50: −log10 of the molar value.

What all share (assay): Kinase panel enzymatic inhibition assay (Nanosyn)
Holding throughout (type): biochemical

One assay addresses T1, TYK2 (Homo sapiens, UniProt P29597).
T1 construct: purchased Nanosyn
The settings on record: ATP at Km; 30-minute pre-incubation; read-out: kinase inhibition in terms of IC50, TYK2. An outline of the steps:
(§1)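 Read-out is percent inhibition or IC50, obtained by mobility shift, ADP detection or time-resolved fluorescence detection. Each kinase was run with ATP at its Km, and compound at 5 μM was pre-incubated for 30 minutes.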

For the next assay, the target named is T2, TYRO3 (Homo sapiens, UniProt Q06418).
T2 construct: purchased Nanosyn
T2 sequence (Q06418 41-890): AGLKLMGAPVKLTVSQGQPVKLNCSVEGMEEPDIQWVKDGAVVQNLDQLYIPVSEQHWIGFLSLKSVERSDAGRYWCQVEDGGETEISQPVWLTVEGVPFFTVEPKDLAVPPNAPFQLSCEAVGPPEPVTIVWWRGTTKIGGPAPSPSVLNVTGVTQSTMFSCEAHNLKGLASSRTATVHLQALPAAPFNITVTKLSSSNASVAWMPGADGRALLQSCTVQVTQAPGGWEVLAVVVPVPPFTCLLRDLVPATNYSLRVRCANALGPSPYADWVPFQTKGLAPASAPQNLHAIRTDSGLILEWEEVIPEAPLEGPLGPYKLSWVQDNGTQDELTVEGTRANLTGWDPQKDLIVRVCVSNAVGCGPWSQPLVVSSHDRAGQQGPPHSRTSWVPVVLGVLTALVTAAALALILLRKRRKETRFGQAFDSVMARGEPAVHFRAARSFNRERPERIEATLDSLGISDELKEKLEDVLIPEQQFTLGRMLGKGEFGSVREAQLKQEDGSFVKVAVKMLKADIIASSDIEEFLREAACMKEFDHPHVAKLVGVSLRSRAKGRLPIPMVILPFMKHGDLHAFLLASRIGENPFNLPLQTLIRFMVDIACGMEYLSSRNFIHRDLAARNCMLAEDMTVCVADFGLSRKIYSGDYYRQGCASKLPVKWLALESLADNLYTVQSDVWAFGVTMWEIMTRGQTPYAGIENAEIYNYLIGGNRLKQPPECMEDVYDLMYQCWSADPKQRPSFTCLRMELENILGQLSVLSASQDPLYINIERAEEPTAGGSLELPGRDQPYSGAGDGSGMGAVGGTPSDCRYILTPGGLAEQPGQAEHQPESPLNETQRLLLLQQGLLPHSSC
The settings on record: ATP at Km; 30-minute pre-incubation; read-out: kinase inhibition in terms of IC50, TYRO3. An outline of the steps:
as §1

In another assay the target is T3, RIPK3 (Homo sapiens, UniProt Q9Y572).
T3 construct: purchased Nanosyn
The settings on record: ATP at Km; 30-minute pre-incubation; read-out: kinase inhibition in terms of IC50, RIPK3. An outline of the steps:
as §1

A further assay deals with T4, RIPK1 (Homo sapiens, UniProt Q13546).
T4 construct: purchased Nanosyn
T4 sequence (Q13546 1-671): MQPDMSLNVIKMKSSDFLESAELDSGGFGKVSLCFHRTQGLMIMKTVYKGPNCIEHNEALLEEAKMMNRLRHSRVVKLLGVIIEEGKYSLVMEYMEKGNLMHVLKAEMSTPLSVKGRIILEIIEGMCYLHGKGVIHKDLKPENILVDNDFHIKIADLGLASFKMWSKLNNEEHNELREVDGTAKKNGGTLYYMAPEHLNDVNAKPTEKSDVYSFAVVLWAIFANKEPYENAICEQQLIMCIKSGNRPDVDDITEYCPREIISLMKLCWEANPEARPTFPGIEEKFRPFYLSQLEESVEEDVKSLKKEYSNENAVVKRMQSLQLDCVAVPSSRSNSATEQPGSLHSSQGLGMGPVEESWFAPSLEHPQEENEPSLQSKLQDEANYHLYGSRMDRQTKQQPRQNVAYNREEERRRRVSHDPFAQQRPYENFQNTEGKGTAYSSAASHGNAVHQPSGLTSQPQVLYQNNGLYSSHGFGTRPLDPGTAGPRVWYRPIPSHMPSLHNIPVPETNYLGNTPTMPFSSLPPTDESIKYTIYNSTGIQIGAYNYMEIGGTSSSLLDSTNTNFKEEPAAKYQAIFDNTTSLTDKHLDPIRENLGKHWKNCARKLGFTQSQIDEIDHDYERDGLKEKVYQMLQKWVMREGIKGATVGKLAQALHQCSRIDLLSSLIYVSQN
The settings on record: ATP at Km; 30-minute pre-incubation; read-out: kinase inhibition in terms of IC50, RIPK1. An outline of the steps: as §1

For the next assay, the target named is T5, RIPK2 (Homo sapiens, UniProt O43353).
T5 construct: purchased Nanosyn
The settings on record: ATP at Km; 30-minute pre-incubation; read-out: kinase inhibition in terms of IC50, RIPK2. An outline of the steps: as §1

The next assay deals with T6, ITK (Homo sapiens, UniProt Q08881).
T6 construct: Nanosyn (contract laboratory that ran the panel)
T6 sequence (Q08881 1-620): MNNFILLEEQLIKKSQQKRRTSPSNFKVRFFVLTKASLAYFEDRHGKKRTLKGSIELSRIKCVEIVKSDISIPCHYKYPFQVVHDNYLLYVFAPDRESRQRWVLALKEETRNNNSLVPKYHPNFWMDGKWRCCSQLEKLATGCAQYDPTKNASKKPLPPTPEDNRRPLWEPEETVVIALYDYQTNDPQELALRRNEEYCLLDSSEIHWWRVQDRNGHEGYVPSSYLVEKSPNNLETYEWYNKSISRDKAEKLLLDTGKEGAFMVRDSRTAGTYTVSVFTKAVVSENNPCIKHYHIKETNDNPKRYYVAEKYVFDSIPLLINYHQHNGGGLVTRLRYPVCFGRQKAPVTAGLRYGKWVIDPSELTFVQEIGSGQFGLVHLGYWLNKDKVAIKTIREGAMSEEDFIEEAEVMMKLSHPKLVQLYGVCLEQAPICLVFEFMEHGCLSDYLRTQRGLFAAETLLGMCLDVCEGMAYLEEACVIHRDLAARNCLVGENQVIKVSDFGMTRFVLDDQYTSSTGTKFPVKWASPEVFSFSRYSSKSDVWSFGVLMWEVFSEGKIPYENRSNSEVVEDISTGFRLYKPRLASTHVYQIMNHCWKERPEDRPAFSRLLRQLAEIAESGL
The settings on record: ATP at Km; 30-minute pre-incubation; read-out: kinase inhibition in terms of IC50, ITK. An outline of the steps: as §1

T1 sequence (P29597 whole entry): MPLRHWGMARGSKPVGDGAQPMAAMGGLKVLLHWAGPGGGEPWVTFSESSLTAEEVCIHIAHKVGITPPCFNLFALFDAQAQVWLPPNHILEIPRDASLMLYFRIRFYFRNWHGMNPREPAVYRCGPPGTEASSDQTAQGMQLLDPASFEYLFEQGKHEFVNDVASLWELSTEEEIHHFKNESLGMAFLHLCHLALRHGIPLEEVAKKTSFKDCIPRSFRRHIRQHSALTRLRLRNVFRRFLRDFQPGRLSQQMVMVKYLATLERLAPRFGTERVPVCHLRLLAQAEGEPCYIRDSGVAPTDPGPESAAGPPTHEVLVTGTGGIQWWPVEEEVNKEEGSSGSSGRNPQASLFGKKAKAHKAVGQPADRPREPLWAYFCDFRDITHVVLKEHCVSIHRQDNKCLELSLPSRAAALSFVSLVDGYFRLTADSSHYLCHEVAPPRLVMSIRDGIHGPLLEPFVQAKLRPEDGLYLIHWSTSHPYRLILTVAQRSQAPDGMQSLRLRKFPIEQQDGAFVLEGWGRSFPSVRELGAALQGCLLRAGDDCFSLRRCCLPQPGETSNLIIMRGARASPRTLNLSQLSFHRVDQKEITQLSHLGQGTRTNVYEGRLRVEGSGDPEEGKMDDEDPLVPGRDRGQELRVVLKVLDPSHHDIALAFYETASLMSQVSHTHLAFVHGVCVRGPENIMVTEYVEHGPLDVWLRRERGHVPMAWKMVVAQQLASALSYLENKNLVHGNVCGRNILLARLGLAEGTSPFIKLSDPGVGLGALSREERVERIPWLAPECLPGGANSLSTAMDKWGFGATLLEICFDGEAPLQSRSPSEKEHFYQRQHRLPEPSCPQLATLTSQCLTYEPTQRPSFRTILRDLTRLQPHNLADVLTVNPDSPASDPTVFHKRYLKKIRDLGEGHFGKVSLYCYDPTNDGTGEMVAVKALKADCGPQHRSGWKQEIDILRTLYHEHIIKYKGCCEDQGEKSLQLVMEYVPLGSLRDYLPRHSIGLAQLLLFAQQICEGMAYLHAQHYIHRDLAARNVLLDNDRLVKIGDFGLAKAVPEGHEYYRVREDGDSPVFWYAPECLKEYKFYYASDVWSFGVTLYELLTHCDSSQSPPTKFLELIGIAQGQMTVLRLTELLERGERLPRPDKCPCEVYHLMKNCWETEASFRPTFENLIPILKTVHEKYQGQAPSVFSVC
T5 sequence (O43353 whole entry): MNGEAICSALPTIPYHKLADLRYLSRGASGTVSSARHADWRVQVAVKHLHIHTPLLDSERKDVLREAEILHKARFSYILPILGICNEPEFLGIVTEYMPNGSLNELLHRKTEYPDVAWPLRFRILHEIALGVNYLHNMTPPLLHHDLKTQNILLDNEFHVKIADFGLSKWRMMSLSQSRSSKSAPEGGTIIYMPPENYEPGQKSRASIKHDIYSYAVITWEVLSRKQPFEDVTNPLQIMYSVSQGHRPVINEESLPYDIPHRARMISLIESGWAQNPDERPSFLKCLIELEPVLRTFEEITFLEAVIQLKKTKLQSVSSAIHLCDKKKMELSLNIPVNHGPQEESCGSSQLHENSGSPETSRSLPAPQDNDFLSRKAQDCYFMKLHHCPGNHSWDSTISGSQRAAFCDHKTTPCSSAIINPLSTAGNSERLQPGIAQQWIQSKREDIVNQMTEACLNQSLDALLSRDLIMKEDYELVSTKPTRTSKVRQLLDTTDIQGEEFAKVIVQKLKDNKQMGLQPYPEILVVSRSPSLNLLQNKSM
T3 sequence (Q9Y572 whole entry): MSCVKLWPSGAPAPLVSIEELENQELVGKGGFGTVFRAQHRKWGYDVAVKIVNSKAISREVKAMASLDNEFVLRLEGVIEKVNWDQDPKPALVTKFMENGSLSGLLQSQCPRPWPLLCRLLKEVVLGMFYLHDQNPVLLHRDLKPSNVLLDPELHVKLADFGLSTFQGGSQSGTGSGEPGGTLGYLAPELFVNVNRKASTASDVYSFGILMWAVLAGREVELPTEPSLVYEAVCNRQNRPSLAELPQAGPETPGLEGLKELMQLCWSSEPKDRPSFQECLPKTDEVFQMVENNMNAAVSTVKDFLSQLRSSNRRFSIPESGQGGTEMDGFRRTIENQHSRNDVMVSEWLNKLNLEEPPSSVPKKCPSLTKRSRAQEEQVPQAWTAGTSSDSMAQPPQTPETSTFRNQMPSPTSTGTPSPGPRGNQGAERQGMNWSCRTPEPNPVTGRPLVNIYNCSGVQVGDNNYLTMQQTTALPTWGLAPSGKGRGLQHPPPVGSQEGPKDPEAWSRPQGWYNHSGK

By pIC50 is commonly meant the negative decadic logarithm of the IC50, by convention in mol/L. Turning to `COc1cc2nccc(Oc3ccc(NC(=O)c4cc(S(C)(=O)=O)n(-c5ccc(F)cc5)n4)c(F)c3)c2cc1OC` [Ex71, N-(4-((6,7-dimethoxyquinolin-4-yl)oxy)-2-fluorophenyl)-1-(4-fluorophenyl)-5-(methylsulfonyl)-1H-pyrazole-3-carboxamide], the pIC50 was at most 5.00 at TYK2; above 6.30 at TYRO3; 5.00 to 6.00 on RIPK3; at most 5.00 on RIPK1; 6.00 to 6.30 on RIPK2; at most 5.00 on ITK.

As to `COc1cc2nccc(Oc3ccc(NC(=O)c4cc(S(C)(=O)=O)n(-c5ccc(F)cc5)n4)cc3)c2cc1OC` [Ex72, N-(4-((6,7-dimethoxyquinolin-4-yl)oxy)phenyl)-1-(4-fluorophenyl)-5-(methylsulfonyl)-1H-pyrazole-3-carboxamide], the pIC50 at TYK2 was 5.00 to 6.00.

As for `COc1cc2nccc(Oc3ccc(NC(=O)c4cc(S(C)(=O)=O)n(-c5ccc(F)cc5)n4)cc3F)c2cc1OC` [Ex73, N-(4-((6,7-dimethoxyquinolin-4-yl)oxy)-3-fluorophenyl)-1-(4-fluorophenyl)-5-(methylsulfonyl)-1H-pyrazole-3-carboxamide], the pIC50 on TYRO3 and at ITK was 5.00 to 6.00 throughout.
